From patent US11352339B2 (MISSION THERAPEUTICS LIMITED, priority 2016, dated 2022)

Biological target: USP30 (Homo sapiens (Human), UniProt Q70CQ3)
Assay: USP30 Biochemical IC50 Assay
Conditions: fluorescence polarisation, TAMRA labelled peptide linked to ubiquitin; 30 min pre-incubation, read after 2 h; read-out: IC50 range
Protocol: Reactions were performed in duplicate in black 384 well plates (small volume, Greiner 784076) in a final reaction volume of 21 μl. Either 1 μl of 50% DMSO or diluted compound was added to the plate. […] Enzyme and compound were incubated for 30 min at room temp. Reactions were initiated by the addition of 50 nM of TAMRA labelled peptide linked to ubiquitin via an iso-peptide bond as fluorescence polarisation substrate. Reactions were read immediately after addition of substrate and following a 2 h incubation at room temperature. Readings were performed on a Pherastar Plus (BMG Labtech). λ Excitation 540 nm; λ Emission 590 nm.

Chain of USP30 (Q70CQ3 57-517): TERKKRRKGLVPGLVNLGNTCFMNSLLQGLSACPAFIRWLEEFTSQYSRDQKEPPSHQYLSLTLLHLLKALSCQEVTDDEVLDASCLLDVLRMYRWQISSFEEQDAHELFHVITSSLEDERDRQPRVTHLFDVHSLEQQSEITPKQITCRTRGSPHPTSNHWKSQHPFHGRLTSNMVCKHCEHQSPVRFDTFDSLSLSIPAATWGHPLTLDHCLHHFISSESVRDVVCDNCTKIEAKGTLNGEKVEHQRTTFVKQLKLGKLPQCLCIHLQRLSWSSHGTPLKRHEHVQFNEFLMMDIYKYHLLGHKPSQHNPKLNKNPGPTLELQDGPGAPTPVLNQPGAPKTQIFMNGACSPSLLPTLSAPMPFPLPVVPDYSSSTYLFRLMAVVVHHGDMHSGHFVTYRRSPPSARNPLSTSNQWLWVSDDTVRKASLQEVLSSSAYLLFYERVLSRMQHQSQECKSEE

Row | SMILES | IC50
1 | CC(=O)Nc1cccc(-c2cc(C3CCN(C#N)C3)[nH]n2)c1 (centres unmarked) [Example 7, N-(3-(5-(1-Cyanopyrrolidin-3-yl)-1H-pyrazol-3-yl)phenyl)acetamide] | 1 to 10 µM
2 | N#Cc1cnn(-c2cc(-c3nc([C@@H]4CCCN4C#N)no3)ccn2)c1 [Example 193, (S)-1-(4-(3-(1-Cyanopyrrolidin-2-yl)-1,2,4-oxadiazol-5-yl)pyridin-2-yl)-1H-pyrazole-4-carbonitrile] | 1 to 10 µM
3 | N#CN1CCC(c2cc(-c3cccc(-c4ccccc4)n3)[nH]n2)C1 (centres unmarked) [Example 37, 3-(5-(6-Phenylpyridin-2-yl)-1H-pyrazol-3-yl)pyrrolidine-1-carbonitrile] | 0.1 to 1 µM
4 | N#Cc1cnn(-c2nccc(-c3nc([C@@H]4CCCN4C#N)no3)n2)c1 [Example 187, (S)-1-(4-(3-(1-Cyanopyrrolidin-2-yl)-1,2,4-oxadiazol-5-yl)pyrimidin-2-yl)-1H-pyrazole-4-carbonitrile] | 0.1 to 1 µM
5 | CNC(=O)c1ccc(-c2cc(C3CCN(C#N)C3)[nH]n2)cn1 (centres unmarked) [Example 3, 5-(5-(1-Cyanopyrrolidin-3-yl)-1H-pyrazol-3-yl)-N-methylpicolinamide] | 1 to 10 µM
6 | N#Cc1cnn(-c2ccnc(-c3nc([C@@H]4CCCN4C#N)no3)c2)c1 [Example 191, (S)-1-(2-(3-(1-Cyanopyrrolidin-2-yl)-1,2,4-oxadiazol-5-yl)pyridin-4-yl)-1H-pyrazole-4-carbonitrile] | 1 to 10 µM
7 | Cn1cc(-c2ccc(-c3nc(C4CCN(C#N)C4)no3)cc2)cn1 (centres unmarked) [Example 66, 3-(5-(4-(1-Methyl-1H-pyrazol-4-yl)phenyl)-1,2,4-oxadiazol-3-yl)pyrrolidine-1-carbonitrile] | 0.1 to 1 µM
8 | N#CN1CCC(c2noc(-c3ccc(-c4ccccc4)[nH]c3=O)n2)C1 (centres unmarked) [Example 52, 3-(5-(2-Oxo-6-phenyl-1,2-dihydropyridin-3-yl)-1,2,4-oxadiazol-3-yl)pyrrolidine-1-carbonitrile] | 1 to 10 µM
9 | C[C@@H]1CN(C#N)C[C@H]1c1cc(-c2ccncc2)n[nH]1 (relative stereo) [Example 48, Trans-3-methyl-4-(3-(pyridin-4-yl)-1H-pyrazol-5-yl)pyrrolidine-1-carbonitrile] | 1 to 10 µM
10 | N#CN1CCCC1c1noc(-c2ccnc(-c3cccc(C(N)=O)c3)c2)n1 (centres unmarked) [Example 170, 3-(4-(3-(1-Cyanopyrrolidin-2-yl)-1,2,4-oxadiazol-5-yl)pyridin-2-yl)benzamide] | 1 to 10 µM
11 | CCc1cccc(-c2ccc3oc([C@@H]4CCCN4C#N)nc3c2)c1 [Example 129, (S)-2-(5-(3-Ethylphenyl)benzo[d]oxazol-2-yl)pyrrolidine-1-carbonitrile] | 0.1 to 1 µM
12 | COc1ccc(-c2cccc(-c3cc(C4CCN(C#N)C4)[nH]n3)c2)cc1 (centres unmarked) [Example 30, 3-(3-(4′-Methoxy-[1,1′-biphenyl]-3-yl)-1H-pyrazol-5-yl)pyrrolidine-1-carbonitrile] | 0.1 to 1 µM
13 | N#CN1CCC(c2cc(NC(=O)Cc3ccccc3)n[nH]2)C1 (centres unmarked) [Example 51] | 0.1 to 1 µM
14 | COc1ncccc1-c1cccc(-c2nc(C3CCCN3C#N)no2)c1 (centres unmarked) [Example 162, 2-(5-(3-(2-Methoxypyridin-3-yl)phenyl)-1,2,4-oxadiazol-3-yl)pyrrolidine-1-carbonitrile] | 0.1 to 1 µM
15 | COc1ccc(-c2cccc(-c3nc(C4CCCN4C#N)no3)c2)cn1 (centres unmarked) [Example 158, 2-(5-(3-(6-Methoxypyridin-3-yl)phenyl)-1,2,4-oxadiazol-3-yl)pyrrolidine-1-carbonitrile] | 1 to 10 µM
16 | COc1cc(-c2cccc(-c3nc(C4CCCN4C#N)no3)c2)ccn1 (centres unmarked) [Example 144, 2-(5-(3-(2-Methoxypyridin-4-yl)phenyl)-1,2,4-oxadiazol-3-yl)pyrrolidine-1-carbonitrile] | 1 to 10 µM
17 | N#CN1CCCC1c1noc(-c2ccnc(-c3cccc(OC(F)(F)F)c3)n2)n1 (centres unmarked) [Example 184, 2-(5-(2-(3-(Trifluoromethoxy)phenyl)pyrimidin-4-yl)-1,2,4-oxadiazol-3-yl)pyrrolidine-1-carbonitrile] | < 0.1 µM
18 | N#CN1CCC(c2nc3cc(-c4ccc5[nH]ncc5c4)cnc3[nH]2)C1 (centres unmarked) [Example 87, 3-(6-(1H-Indazol-5-yl)-3H-imidazo[4,5-b]pyridin-2-yl)pyrrolidine-1-carbonitrile] | 0.1 to 1 µM
19 | C[C@H]1CN(C#N)C[C@@H]1c1[nH]nc(-c2cccc(-c3ccccc3)c2)c1F [Example 22] | < 0.1 µM
20 | C[C@H]1CN(C#N)C[C@@H]1c1nc2cc(-c3ccccc3)cnc2[nH]1 (single isomer, unassigned) [Example 102, Trans-3-methyl-4-(6-phenyl-3H-imidazo[4,5-b]pyridin-2-yl)pyrrolidine-1-carbonitrile] | 0.1 to 1 µM
21 | Cn1c([C@@H]2CCCN2C#N)nc2cc(-c3ccccc3)ccc21 [Example 96, (S)-2-(1-Methyl-5-phenyl-1H-benzo[d]imidazol-2-yl)pyrrolidine-1-carbonitrile] | 10 to 100 µM
22 | CNC(=O)c1cccc(-c2cnc3[nH]c(C4CCN(C#N)C4)nc3c2)c1 (single isomer, unassigned) [Example 92, 3-(2-(1-Cyanopyrrolidin-3-yl)-3H-imidazo[4,5-b]pyridin-6-yl)-N-methylbenzamide] | 1 to 10 µM

Row | SMILES | IC50
23 | N#Cc1cccc(-c2ccc3nc([C@@H]4CCCN4C#N)oc3c2)n1 [Example 132, (S)-6-(2-(1-Cyanopyrrolidin-2-yl)benzo[d]oxazol-6-yl)picolinonitrile] | 1 to 10 µM
24 | N#CN1CCC[C@H]1c1nc2cc(-c3cccc(OC(F)(F)F)c3)ccc2o1 [Example 133, (S)-2-(5-(3-(Trifluoromethoxy)phenyl)-benzo[d]oxazol-2-yl)pyrrolidine-1-carbonitrile] | 0.1 to 1 µM
25 | Cc1n[nH]c2cc(-c3ccc4oc([C@@H]5CCCN5C#N)nc4c3)ccc12 [Example 134, (S)-2-(5-(3-Methyl-1H-indazol-6-yl)-benzo[d]oxazol-2-yl)pyrrolidine-1-carbonitrile] | 1 to 10 µM
26 | Cc1cc(-c2cc(C3CCN(C#N)C3)[nH]n2)ccn1 (centres unmarked) [Example 11, 3-(3-(2-Methylpyridin-4-yl)-1H-pyrazol-5-yl)pyrrolidine-1-carbonitrile] | 1 to 10 µM
27 | N#CN1CCC(c2[nH]nc(-c3cccc(N4CCCCC4)n3)c2F)C1 (centres unmarked) [Example 196, 3-(4-Fluoro-3-(6-(piperidin-1-yl)pyridin-2-yl)-1H-pyrazol-5-yl)pyrrolidine-1-carbonitrile] | 0.1 to 1 µM
28 | N#CN1CCC(c2nnc(-c3cccc(-c4ccccc4)n3)[nH]2)C1 (centres unmarked) [Example 110, 3-(5-(6-Phenylpyridin-2-yl)-4H-1,2,4-triazol-3-yl)pyrrolidine-1-carbonitrile] | 0.1 to 1 µM
29 | N#Cc1cccc(-c2cc(C3CCN(C#N)C3)[nH]n2)c1 (centres unmarked) [Example 1, 3-(3-(3-Cyanophenyl)-1H-pyrazol-5-yl)pyrrolidine-1-carbonitrile] | 0.1 to 1 µM
30 | N#Cc1ccc(C2CN(c3noc(C4CCN(C#N)C4)n3)C2)cc1 (centres unmarked) [Example 198, 3-(3-(3-(4-Cyanophenyl)azetidin-1-yl)-1,2,4-oxadiazol-5-yl)pyrrolidine-1-carbonitrile] | 0.1 to 1 µM
31 | N#CN1CCC(c2nc3cc(-c4cn[nH]c4)cnc3[nH]2)C1 (centres unmarked) [Example 88, 3-(6-(1H-Pyrazol-4-yl)-3H-imidazo[4,5-b]pyridin-2-yl)pyrrolidine-1-carbonitrile] | 1 to 10 µM
32 | N#CN1CCC(c2cc(-c3ccc(-c4ccccc4)cn3)n[nH]2)C1 (centres unmarked) [Example 194, 3-(5-(5-Phenylpyridin-2-yl)-1H-pyrazol-3-yl)pyrrolidine-1-carbonitrile] | < 0.1 µM
33 | N#CN1CCC(c2cc(-c3cccc(-c4cnoc4)c3)[nH]n2)C1 (centres unmarked) [Example 33, 3-(5-(3-(Isoxazol-4-yl)phenyl)-1H-pyrazol-3-yl)pyrrolidine-1-carbonitrile] | 0.1 to 1 µM
34 | N#CN1CCC(c2ncc(-c3ccccc3)c(=O)[nH]2)C1 (centres unmarked) [Example 120, 3-(6-Oxo-5-phenyl-1,6-dihydropyrimidin-2-yl)pyrrolidine-1-carbonitrile] | 1 to 10 µM
35 | N#CN1CCC(c2nnc(-c3ccccc3)[nH]2)C1 (centres unmarked) [Example 106, 3-(5-Phenyl-4H-1,2,4-triazol-3-yl)pyrrolidine-1-carbonitrile] | 1 to 10 µM
36 | Cn1cc(-c2cccc(-c3nc(C4CCCN4C#N)no3)c2)cn1 (centres unmarked) [Example 148, 2-(5-(3-(1-Methyl-1H-pyrazol-4-yl)phenyl)-1,2,4-oxadiazol-3-yl)pyrrolidine-1-carbonitrile] | 1 to 10 µM
37 | Cc1ccc(F)c(-c2ccc3nc(C4CCN(C#N)C4)[nH]c3c2)c1 (centres unmarked) [Example 76, 3-(6-(2-Fluoro-5-methylphenyl)-1H-benzo[d]imidazol-2-yl)pyrrolidine-1-carbonitrile] | < 0.1 µM
38 | N#CN1CCC(c2nnc(-c3ccc(-c4ccccc4)cc3)[nH]2)C1 (centres unmarked) [Example 112, 3-(3-([1,1′-Biphenyl]-4-yl)-1H-1,2,4-triazol-5-yl)pyrrolidine-1-carbonitrile] | 0.1 to 1 µM
39 | N#CN1CCC(c2cc(-c3cccc(-c4ccccc4)c3)no2)C1 (single isomer, unassigned) [Example 119, 3-(3-([1,1′-Biphenyl]-3-yl)isoxazol-5-yl)pyrrolidine-1-carbonitrile] | < 0.1 µM
40 | N#CN1CCC(c2noc(-c3cccc(-c4ccccc4)c3)n2)C1 (centres unmarked) [Example 55] | < 0.1 µM
41 | N#CN1CCC(c2cc(-c3ccc(-c4ccccc4)nc3)n[nH]2)C1 (centres unmarked) [Example 40] | 0.1 to 1 µM
42 | Cn1ncc2cc(-c3ccc4oc([C@@H]5CCCN5C#N)nc4c3)ccc21 [Example 135, (S)-2-(5-(1-Methyl-1H-indazol-5-yl)-benzo[d]oxazol-2-yl)pyrrolidine-1-carbonitrile] | 1 to 10 µM
43 | CCc1cccc(-c2ccc3nc([C@@H]4CCCN4C#N)oc3c2)c1 [Example 130, (S)-2-(6-(3-Ethylphenyl)benzo[d]oxazol-2-yl)pyrrolidine-1-carbonitrile] | 0.1 to 1 µM
44 | C[C@@H]1CN(C#N)C[C@H]1c1cc(-c2cccc(-c3ccccc3)c2)n(C)n1 [Example 25] | 0.1 to 1 µM
